The values below are quoted from earlier work in patent US9415078B2 (priority 2011, dated 2016).

“And” between values parts separate entries of the source, which are not always exact repeats. Equal values may be shown once. Read-outs that look alike come from different tables or passages of the source.

The data set has as its system non squamous and squamous carcinoma of lung. The conditions noted are these: pemetrexed-based therapy, two comparisons.

For `Nc1nc2[nH]cc(CCc3ccc(C(=O)N[C@@H](CCC(=O)O)C(=O)O)cc3)c2c(=O)[nH]1` [pemetrexed], the “HR for survival versus the comparators” value is, setting by setting: (Non squamous patients) 0.78 and 0.84; (squamous patients) 1.56 and 1.23.
